# Experimental data reported in ChEMBL document CHEMBL3507680, “University of Dundee, Gates Library screen for HepG2 cell viability”.
# Test: Human HepG2 cell viability assay in 384 well format
# Type: toxicity, cell-based
# Set-up: dose 125 nL, time 70.5 hour; concentration not given beside the values
# Settings: HepG2 cells, read-out: Inhibition
row,Structure (SMILES),cytotoxicity at 70.5 h [%]
1,CC(C)C(NCc1ccc(Cn2cncn2)cc1)c1ccccc1 (stereo not drawn),-3.88
2,CCOCCOc1ccc(S(=O)(=O)N2CCc3c(nc[nH]c3=O)C2)cc1,1.59
3,CNC(=O)CN1CCC(CN(C)Cc2ccc(C)cc2C)CC1,27.9
4,COC(=O)COc1c(F)cc(Br)cc1C(C)=O,-2.7
5,Cc1ccc(S(N)(=O)=O)cc1C(=O)NC1CCCN(C)C1 (stereo not drawn),1.47
6,CN(CC(=O)NS(=O)(=O)c1cccs1)Cc1ccccc1,7.04
7,CN(CC(=O)NS(=O)(=O)c1ccsc1)Cc1ccccc1,-6.37
8,CN(C)C(=O)C1SCCc2ccccc21 (stereo not drawn),-6.79
9,Cc1cnc(CNC(=O)NC2CCCN(c3ccccc3F)C2)s1 (stereo not drawn),-3.86
10,Cc1cccc(C(=O)NCCNS(=O)(=O)c2cccs2)c1C,-5.88
11,CCOCCCC(=O)NCc1ccnc(N2CCN(C)CC2)c1,4.8
12,CCOc1ccc(-c2nc(CN(C)Cc3c(C)noc3C)cs2)cc1,11.3
13,O=C(Cn1cc(C2CC2)nn1)N(Cc1ccco1)CC1CCCO1 (stereo not drawn),10.2
14,Cc1ccccc1C(NC(=O)NCC1(O)CCC1)C1CC1 (stereo not drawn),5.34
15,COc1cc(C(=O)NC(C)c2cccs2)cc2c1OCCO2 (stereo not drawn),-9.64
16,CNC(=O)c1cc(NC(=O)NC2CC2)ccc1F,-8.55
17,Cc1cc(C)n(CC(C)NC(=O)NCc2c(C)cc(C)[nH]c2=O)n1 (stereo not drawn),14.3
18,CCC(NC(=O)c1cc(OC)c2c(c1)OCCO2)c1cccs1 (stereo not drawn),-8.09
19,COc1ccc2c(c1)NC(=O)C2OC(=O)CC(C)(C)C (stereo not drawn),-9.54
20,C=C(C)CN1CCC(NC(=O)Nc2ccc(F)c(C(=O)NC)c2)CC1,21.9

row,Structure (SMILES),cytotoxicity at 70.5 h [%]
1,CC(NC(=O)NCC(C)(C)C(N)=O)c1nc(-c2ccccc2)cs1 (stereo not drawn),-5.18
2,O=C(CCc1cccs1)Nc1ccnn1C1CCS(=O)(=O)C1 (stereo not drawn),-1.32
3,Cc1nc(C)c(CNC(=O)N2CCN(c3ccc(Cl)cn3)CC2)s1,-3.03
4,Cc1cc(CNC(=O)N2CCN(c3ccc(Cl)cn3)CC2)c(C)o1,18.2
5,Cc1nc(CNC(=O)N2CCN(c3ccc(Cl)cn3)CC2)sc1C,-3.28
6,COc1c(Cl)cccc1NCc1csc(NC(C)=O)n1,3.58
7,O=S(=O)(Cc1ccon1)N1CCN(c2ccncc2Cl)CC1,-11.7
8,O=C(NCC1(O)CCC1)NC(c1cc(F)ccc1F)C1CC1 (stereo not drawn),-6.17
9,Cc1cc(N2CCCCC2)c(C#N)c(C)n1,-5.91
10,CCOc1c(F)cccc1C(=O)N(CC)C(C)c1cccnc1 (stereo not drawn),-6.68
11,CN(CCCNC(=O)C1CCc2cn[nH]c2C1)c1ccc(F)cc1 (stereo not drawn),16.9
12,N#CC1(NC(=O)CN2CCc3c(ncn3C3CC3)C2)CCCC1,-2.71
13,CC(C)Cc1noc(CC2CCS(=O)(=O)C2)n1 (stereo not drawn),-6.88
14,Cc1nnc(CN(C)CC(=O)N2CCCN(C3CCCC3)CC2)n1C,-6.96
15,COC(=O)CSCc1noc(-c2ccc(C)cc2)n1,0.48
16,CSCCC(NC(N)=O)C(=O)Nc1ccc(-n2cccn2)nc1 (stereo not drawn),-7.37
17,O=C(C1CCCCN1Cc1nccn1CC(F)(F)F)N1CCCC1 (stereo not drawn),-2.02
18,CN(Cc1ccc2c(c1)OCCO2)c1ncc(S(N)(=O)=O)s1,8.35
19,CCN(Cc1ccc2c(c1)OCO2)c1ncc(S(N)(=O)=O)s1,1.59
20,CC(C)c1nc2n(n1)CC(NCc1cc3ccccc3o1)CC2 (stereo not drawn),12.7

row,Structure (SMILES),cytotoxicity at 70.5 h [%]
1,CN(C)c1ccc(C(=O)N(Cc2ccncc2)CC2CCCO2)nn1 (stereo not drawn),-4.51
2,O=C(Nc1cccnc1)NC1CCN(c2ccccc2OC(F)F)C1 (stereo not drawn),-3.6
3,CC(C)Cc1noc(CN(C)C2CCS(=O)(=O)C2)n1 (stereo not drawn),-3.8
4,COc1ccc(NC(=O)N2CCC(CSC)C2)cc1C (stereo not drawn),2.45
5,COC(CNC(=O)c1ccc(NC(C)=O)cc1)c1cccc(Cl)c1 (stereo not drawn),-5.6
6,NC(=O)C1CCCN1Cc1nccn1CC(F)(F)F (stereo not drawn),10.6
7,O=C(c1coc(-c2ccccc2)n1)N1CCS(=O)(=O)CC1,-3.26
8,O=C(c1coc(-c2ccccc2)n1)N1CCCC1,3.66
9,O=C(c1coc(-c2ccccc2)n1)N1CCCCC1,-10.3
10,Cc1c(C(=O)NC2CCCOC2)nnn1-c1ccc(Cl)cc1F (stereo not drawn),-0.806
11,CN(Cc1nc(C(C)(C)C)no1)C1CCS(=O)(=O)C1 (stereo not drawn),6.01
12,CC(CNC(=O)c1cccnc1)Oc1ccc(F)cc1 (stereo not drawn),8.38
13,CC(NC(=O)NCCC1=CCCCC1)c1nncn1C (stereo not drawn),35.8
14,CC(C)(C)c1noc(CN2CCCc3cc(OC(F)(F)F)ccc32)n1,-2.73
15,NC(=O)NC(=O)C(c1ccccc1)N1CCN(Cc2ccsc2)CC1 (stereo not drawn),-7.31
16,COc1ccc(OCCN(C)S(=O)(=O)c2cnn(C)c2)cc1,-6.09
17,O=C(NCC1CCC1)c1ccnc(-n2ccnc2)c1,1.75
18,O=C(NC1CCc2cc(Cl)ccc21)C1CCN(C(=O)C2CC2)CC1 (stereo not drawn),-4.11
